# Experimental data taken from patent US6566368B2, “Apomorphine-containing dosage form for ameliorating male erectile dysfunction” (Pentech Pharmaceuticals, Inc., priority 1994, dated 2003).
# Values joined by “and” are separate entries in the source; they are usually repeats but may differ in a detail not shown here. Identical values can stand only once. Like-named read-outs stand apart in the source and are kept apart here.
# Experiments:
# [1] = tested on: patients with psychogenic impotence; assay: Pilot Study #3: aqueous intranasal spray (1.25 mg per puff), […] erectile response, adverse effects; format: in vivo, human
# Description: The first patient was an anxious person who had been experiencing erectile dysfunction for two years.
# [2] = tested on: patients with psychogenic impotence; conditions: for Mean (SE) erectile function / Percent (SE) successful erectile function (score at least 16): N 12
# [3] = tested on: men with psychogenic male erectile dysfunction (MED); assay: Pilot Study #6, third phase: home use, reported success of intercourse (Sexual Function questionnaire); format: in vivo, human; conditions: for Reported Success by Tablet Strength: home use; for Reported Success, Overall: all doses, 20/29
# Description: The third phase, a home-use phase, lasted 5 weeks. During this phase, subjects attempted coitus at least once each week after taking a single APO tablet. After each attempt the subject and their partner completed a Sexual Function questionnaire (Table XVII).
# During the third phase, subjects had recorded at baseline, their satisfaction, erection, number of attempts, and successful intercourse on a VAS scale. Evaluable subjects first recorded a success rate, then completed VAS for erection results and satisfaction with intercourse following take-home treatment. Success rate was calculated for mg as well as μg/kg body weight doses (males). Several evaluations of the data were made including the male and female responses to treatments. The overall average success rate is 69% with APO treatment which is much higher than the average baseline rate 28% (Tables XXI, XXII).
# [4] = tested on: patients with psychogenic impotence
# [5] = tested on: men with psychogenic male erectile dysfunction (MED); assay: Pilot Study #6, third phase: home use, reported success of intercourse (Sexual Function questionnaire); format: in vivo, human; conditions: 4 or 6 mg APO sublingual tablets
# [6] = tested on: non-vasculogenic impotent patients; assay: Dose Evaluation Study: clinical response to sublingual apomorphine tablets before intercourse; conditions: for Positive Responses % / Positive Responses No.: 20 days
# [7] = in vivo; for Vd (SS) / Vd (beta): male, human
# [8] = tested on: patients with psychogenic impotence; remark: listed apart in the source
# [9] = cited from earlier work
# [10] = intranasal 2.5 mg, Patient No. 2
# [11] = sublingual tablets 3, 4, 5 mg (Table I), twelve patients
# [12] = liquid apomorphine sublingual, 10 mg and 20 mg, ten evaluable patients
# [13] = liquid sublingual 10 mg and 20 mg
# [14] = 3 mg tablet 20 minutes prior to intercourse, 5 patients
# [15] = 4 mg tablet 20 minutes prior to intercourse, 5 patients
# [16] = 5 mg tablet 20 minutes prior to intercourse, 10 patients
# [17] = 6 mg tablet 20 minutes prior to intercourse, 10 patients
# [18] = 7 mg tablet 20 minutes prior to intercourse, 10 patients
# [19] = 8 mg tablet 20 minutes prior to intercourse, 10 patients
# [20] = 10 mg tablet 20 minutes prior to intercourse, 10 patients
# [21] = sublingual tablets 2.5 mg and 5 mg, seven evaluable patients
# [22] = Durif, F. et al., s.l., 7 × 3 mg tablets, 0.3 mg/kg, 7 subjects
# [23] = Durif, F. et al., s.l., 14 × 3 mg tablets, 0.6 mg/kg, 7 subjects
# [24] = Gancher, S. T., et al., s.c., 0.02 mg/kg, 5 subjects
# [25] = Gancher, S. T., et al., s.l., 3 × 6 mg tablets, 0.25 mg/kg, 5 subjects
# [26] = Montastruc, J. L., et al., s.c., 0.04 mg/kg, 9 subjects
# [27] = Montastruc, J. L., et al., s.l., 10 × 3 mg tablets, 0.42 mg/kg, 9 subjects
smiles,measurement,setting,value
CN1CCc2cccc3c2[C@H]1Cc1ccc(O)c(O)c1-3 [apomorphine],adverse effects,[1]; [10],major hemodynamic adverse effects
same,blood pressure (hypotension),[1]; [10],70/50
same,total yawns,"[1]; intranasal 2.5 mg, Patient No. 2, ten minutes post-dosing",five
same,erectile response,[1]; intranasal administration,effective in eliciting an erection
same,score on both erotic and neutral video segments,"[1]; intranasal spray 2.5 mg, 3.75 mg, first patient, categorized as a failure",less than sixteen
same,"time to adverse effects (nausea and vomiting, dizziness, blurred vision, diaphoresis)","[1]; intranasal spray, first patient, after inadvertently increased dose",five
same,"active treatment compared with placebo, mean erectile function","[2]; 3 mg and 4 mg, regardless of stimulus background",more effective than placebo
same,Mean (SE) erectile function,"[2]; Erotic stimulus, 3 mg",18.75 (2.51)
same,Percent (SE) successful erectile function (score at least 16),"[2]; Erotic stimulus, 3 mg",66.67 (13.61) Percent
same,Mean (SE) erectile function,"[2]; Erotic stimulus, 4 mg",19.83 (2.67)
same,Percent (SE) successful erectile function (score at least 16),"[2]; Erotic stimulus, 4 mg",66.67 (13.61) Percent
same,Mean (SE) erectile function,"[2]; Neutral stimulus, 3 mg",11.83 (2.68)
same,Percent (SE) successful erectile function (score at least 16),"[2]; Neutral stimulus, 3 mg",50.00 (14.43) Percent
same,Mean (SE) erectile function,"[2]; Neutral stimulus, 4 mg",13.50 (2.61)
same,Percent (SE) successful erectile function (score at least 16),"[2]; Neutral stimulus, 4 mg",50.00 (14.43) Percent
same,number of yawns,"[2]; all doses 3, 4, 5 mg",one or two
same,"domestic use, patient reports","[2]; eight successful patients, one to four months",good erectile activity and no side effects
same,patients successfully treated among those who had failed a trial of yohimbine HCl,[2]; of group of seven,four
same,failures with apomorphine,[2]; [11],33%
same,patients successful with apomorphine,[2]; [11],67%
same,Reported Success by Tablet Strength,"[3]; Female group, 4 mg",5/7 (71.4%)
same,Reported Success by Tablet Strength,"[3]; Female group, 8 mg",4/7 (57.1%)
same,Reported Success by Apomorphine Dosage,"[3]; Female group, 35-50 μg/kg",3/5 (60.0%)
same,Reported Success by Apomorphine Dosage,"[3]; Female group, 50-74 μg/kg",9/11 (81.8%)
same,Reported Success by Apomorphine Dosage,"[3]; Female group, 50-74 μg/kg, listed as APO",82%
same,Reported Success by Apomorphine Dosage,"[3]; Female group, >74 μg/kg",8/13 (61.5%)
same,"Reported Success, Overall",[3]; Female group,(69.0%)
same,Reported Success by Tablet Strength,"[3]; Male group, 4 mg",5/7 (71.4%)
same,Reported Success by Tablet Strength,"[3]; Male group, 8 mg",4/7 (57.1%)
same,Reported Success by Apomorphine Dosage,"[3]; Male group, 35-50 μg/kg",4/5 (80.0%)
same,Reported Success by Apomorphine Dosage,"[3]; Male group, 50-74 μg/kg",8/11 (72.7%)
same,Reported Success by Apomorphine Dosage,"[3]; Male group, 50-74 μg/kg, listed as APO",80%
same,Reported Success by Apomorphine Dosage,"[3]; Male group, >74 μg/kg",8/13 (61.5%)
same,"Reported Success, Overall",[3]; Male group,(69.0%)
same,overall average success rate,"[3]; take-home APO treatment, average baseline rate 28%",69%
same,failures with apomorphine,[4]; [12],30%
same,successes (score of no less than 16 on both neutral and erotic video segments),[4]; [12],70%
same,adverse effects,[4]; [13],Adverse effects were reported at both dose levels
same,erectile response,[4]; [13],produce erectile responses
same,longest duration of side effects,[4]; [13],30 to 40 min
same,onset of adverse effects,[4]; [13],ten to fifteen
same,yawns per session,"[4]; liquid sublingual 10 mg and 20 mg, each patient",two to five
same,erectile response,"[4]; liquid sublingual 10 mg and 20 mg, listed as Apomorphine",effective in inducing erectile episodes without increasing libido
same,patients successful with apomorphine among those who had failed a trial of yohimbine HCl,"[4]; of group of eight, liquid sublingual 10 mg and 20 mg",6
same,"patients developing nausea, diaphoresis, dizziness, blurred vision, decrease in blood pressure and heart rate","[4]; of ten evaluable, liquid sublingual 10 mg and 20 mg",eight
same,men with MED in whom erections were caused,[5],72%
same,Positive Responses %,[6]; [14],0%
same,Positive Responses No.,[6]; [14],0
same,Nausea %,"[6]; 3 mg tablet, 5 patients",0%
same,Nausea No.,"[6]; 3 mg tablet, 5 patients",0
same,Vomiting %,"[6]; 3 mg tablet, 5 patients",0%
same,Vomiting No.,"[6]; 3 mg tablet, 5 patients",0
same,Positive Responses %,[6]; [15],40%
same,Positive Responses No.,[6]; [15],2
same,Nausea %,"[6]; 4 mg tablet, 5 patients",20%
same,Nausea No.,"[6]; 4 mg tablet, 5 patients",1
same,Vomiting %,"[6]; 4 mg tablet, 5 patients",20%
same,Vomiting No.,"[6]; 4 mg tablet, 5 patients",1
same,Positive Responses %,[6]; [16],50%
same,Positive Responses No.,[6]; [16],5
same,Nausea %,"[6]; 5 mg tablet, 10 patients",20%
same,Nausea No.,"[6]; 5 mg tablet, 10 patients",2
same,Vomiting %,"[6]; 5 mg tablet, 10 patients",10%
same,Vomiting No.,"[6]; 5 mg tablet, 10 patients",1
same,Positive Responses %,[6]; [17],70%
same,Positive Responses No.,[6]; [17],7
same,Nausea %,"[6]; 6 mg tablet, 10 patients",20%
same,Nausea No.,"[6]; 6 mg tablet, 10 patients",2
same,Vomiting %,"[6]; 6 mg tablet, 10 patients",20%
same,Vomiting No.,"[6]; 6 mg tablet, 10 patients",2
same,Positive Responses %,[6]; [18],70%
same,Positive Responses No.,[6]; [18],7
same,Nausea %,"[6]; 7 mg tablet, 10 patients",20%
same,Nausea No.,"[6]; 7 mg tablet, 10 patients",2
same,Vomiting %,"[6]; 7 mg tablet, 10 patients",20%
same,Vomiting No.,"[6]; 7 mg tablet, 10 patients",2
same,Positive Responses %,[6]; [19],70%
same,Positive Responses No.,[6]; [19],7
same,Nausea %,"[6]; 8 mg tablet, 10 patients",30%
same,Nausea No.,"[6]; 8 mg tablet, 10 patients",3
same,Vomiting %,"[6]; 8 mg tablet, 10 patients",30%
same,Vomiting No.,"[6]; 8 mg tablet, 10 patients",3
same,Positive Responses %,[6]; [20],80%
same,Positive Responses No.,[6]; [20],8
same,Nausea %,"[6]; 10 mg tablet, 10 patients",40%
same,Nausea No.,"[6]; 10 mg tablet, 10 patients",4
same,Vomiting %,"[6]; 10 mg tablet, 10 patients",40%
same,Vomiting No.,"[6]; 10 mg tablet, 10 patients",4
same,plasma concentration compared with previous reports (Table XVI),[7],produced a lower plasma concentration
same,Vd (SS),[7]; 4 mg,1.836 mL
same,Vd (beta),[7]; 4 mg,4.076 mL
same,Vd (SS),[7]; 8 mg,46.30 mL
same,Vd (beta),[7]; 8 mg,69.09 mL
same,yawns per session,"[8]; 2.5 mg dose, patients who failed testing",one or two
same,yawning responses per session,[8]; 5 mg dose,three to five
same,adverse effects,"[8]; sublingual tablet 2.5 mg, the two successful patients",did not produce adverse effects
same,"adverse effects (nausea, diaphoresis, dizziness, blurred vision, facial flushing, drop in heart rate and blood pressure)",[8]; sublingual tablet 5 mg,produced adverse effects
same,failures during lab testing,[8]; [21],71%
same,successes (score of no less than 16) during lab testing,[8]; [21],28% and 29%
same,erectile response,[8]; sublingual tablets 2.5 and 5 mg,produced erectile responses in some patients
same,time for sublingual tablets to dissolve,"[8]; sublingual tablets 2.5 and 5 mg, under the tongue",five
same,yawns,"[8]; the two successful patients, 2.5 mg and 5 mg doses",three to five
same,Cmax,"[9]; Durif, F. et al., Clin. Neuropharm. 16:157-166, s.l., 7 × 3 mg tablets, 0.3 mg/kg, 7 subjects",7.5 ng/mL
same,AUC,[9]; [22],929 ng·min/mL
same,Cl,[9]; [22],35 mL/min/kg
same,MRT,[9]; [22],128 min
same,Tmax,[9]; [22],31.5 min
same,Vd,[9]; [22],3.4 L/kg
same,AUC,[9]; [23],"2,277 min*ng/ml"
same,Cl,[9]; [23],30 mL/min/kg
same,Cmax,[9]; [23],22.7 ng/mL
same,MRT,[9]; [23],125 min
same,Tmax,[9]; [23],38.3 min
same,Vd,[9]; [23],2.8 L/kg
same,Cmax,"[9]; Gancher, S. T., et al., Movement Disorders 6:212-216 (1991), s.l., 3 × 6 mg tablets, 0.25 mg/kg, 5 subjects",14.3 ng/mL
same,Vd,"[9]; Gancher, S. T., et al., i.v., […], 5 subjects, *Calculated",0.043* l/kg
same,Tmax,"[9]; Gancher, S. T., et al., i.v., […], 5 subjects",6.7 min
same,AUC,[9]; [24],592.7 ng·min/mL
same,Cmax,[9]; [24],19.36 ng/mL
same,Tmax,[9]; [24],6.5 min
same,AUC,[9]; [25],"1,057 min*ng/ml"
same,Tmax,[9]; [25],45 min
same,Cmax,"[9]; Montastruc, J. L., et al., Clin. Neuropharmacol. 14:432-437 (1991), s.l., 10 × 3 mg tablets, 0.42 mg/kg, 9 subjects",28 ng/mL
same,AUC,[9]; [26],837 ng·min/mL
same,Cmax,[9]; [26],26 ng/mL
same,Tmax,[9]; [26],18 min
same,AUC,[9]; [27],"1,882 min*ng/ml"
same,Tmax,[9]; [27],41 min
